Results on one compound are retold here after patent publication US8501796B2, “Ester pro-drugs of [3-(1-(1H-imidazol-4-yl)ethyl)-2-methylphenyl] methanol for lowering intraocular pressure” (Allergan, Inc., priority 2010, dated 2013).

In one test the test system is monkeys. Kind of test: Intraocular pressure-lowering effect in monkeys compared to placebo. The class given is in vivo. The settings on record: monkeys treated with composition containing the compound.
For test [1], the system named is Normotensive male Dutch-Belted rabbits. Put plainly: IOP lowering in normotensive rabbits after a topical eye drop. The format is in vivo. Particulars: rabbit, single 50 μl topical drop yielding 0.15% or 0.3% of active metabolite, 1% polysorbate 80 pH 5.5; IOP measured 0-8 hours; FIG. 1. How it is done:
The experimental animals used, were Normotensive male Dutch-Belted rabbits (Myrtle's Rabbitry) over 6 months in age (n=4/compound/dose screened). A single drop (50 μl) of the drug formulation, which yields 0.15% or 0.3% of the active metabolite when completely hydrolyzed in 1% polysorbate 80 at pH 5.5, was administered topically by pipette onto the right eye (treated eye) at approximately 0700 hours. IOP of the rabbits (treated and untreated eyes) was measured 0 hours before and at 0.5, 1, 2, 3, 4, 6 and 8 hours after topical eyedrop administration. IOP at the time of eye drop administration (0 hours) was used as a baseline value. Prior to the tonometric measurements, 0.05% proparacaine (50 μl) was administered to each eye. Tonometric IOP measurements were obtained with a Mentor Pneumontonmeter. Additionally, all studies were masked. At least 1 week of wash-out time was allowed for each rabbit between dosings. All animals were examined for sedation, ocular irritation, and changes in pupil diameter throughout the course of the experiments.

In the case of `Cc1c(COC(=O)C(C)C)cccc1[C@H](C)c1c[nH]cn1` [Compound 1, iso-Butyric acid 3-[(S)-1-(1H-imidazol-4-yl)-ethyl]-2-methyl-benzyl ester], the “time for which the decrease in intraocular pressure is maintained” value with monkeys is “up to 24 hours”. Also, in test [1], the “IOP lowering capacity (efficacy) compared to Alphagan P” value is given as “equal or comparable efficacy to Alphagan P®” and the “intraocular pressure duration compared to Alphagan P” value is on record as “longer intraocular pressure duration than Alphagan P®”.
